Laboratory results published in a compilation of properties of binary mixtures (doi:10.1016/j.molliq.2022.118933).

Test: xn = mol fraction of the nth substance listed
Settings: 100 kPa

CCCC[N+](C)(C)C[c-]1cccc1.O=S(=O)([N-]S(=O)(=O)C(F)(F)F)C(F)(F)F.[Fe+2].c1cc[cH-]c1 + CC#N
Settings	electrical conductivity [S/m]
298 K, x1 = 0.01	1.35
298 K, x1 = 0.02	1.89
298 K, x1 = 0.05	2.2
298 K, x1 = 0.06	2.14
298 K, x1 = 0.07	2.07
298 K, x1 = 0.08	1.96
298 K, x1 = 0.1	1.8
298 K, x1 = 0.12	1.45
298 K, x1 = 0.15	1.17
298 K, x1 = 0.2	0.759
303 K, x1 = 0.01	1.41
303 K, x1 = 0.02	1.98
303 K, x1 = 0.03	2.28
303 K, x1 = 0.05	2.32
303 K, x1 = 0.06	2.28
303 K, x1 = 0.07	2.2
303 K, x1 = 0.08	2.07
303 K, x1 = 0.12	1.57
303 K, x1 = 0.15	1.24
303 K, x1 = 0.2	0.843
308 K, x1 = 0.01	1.47
308 K, x1 = 0.02	2.06
308 K, x1 = 0.03	2.39
308 K, x1 = 0.05	2.45
308 K, x1 = 0.06	2.41
308 K, x1 = 0.07	2.33
308 K, x1 = 0.1	2.01
308 K, x1 = 0.12	1.7
308 K, x1 = 0.15	1.36
313 K, x1 = 0.01	1.53
313 K, x1 = 0.02	2.15
313 K, x1 = 0.03	2.5
313 K, x1 = 0.05	2.57
313 K, x1 = 0.06	2.54
313 K, x1 = 0.08	2.34
313 K, x1 = 0.1	2.14
313 K, x1 = 0.12	1.81
313 K, x1 = 0.15	1.46
313 K, x1 = 0.2	1.04
318 K, x1 = 0.02	2.23
318 K, x1 = 0.03	2.6
318 K, x1 = 0.05	2.7
318 K, x1 = 0.07	2.61
318 K, x1 = 0.1	2.28
318 K, x1 = 0.12	1.94
323 K, x1 = 0.02	2.33
323 K, x1 = 0.03	2.71
323 K, x1 = 0.05	2.82
323 K, x1 = 0.06	2.8
323 K, x1 = 0.07	2.74
323 K, x1 = 0.08	2.6
323 K, x1 = 0.1	2.41
323 K, x1 = 0.12	2.07
323 K, x1 = 0.15	1.69
328 K, x1 = 0.01	1.69
328 K, x1 = 0.02	2.42
328 K, x1 = 0.03	2.82
328 K, x1 = 0.06	2.93
328 K, x1 = 0.07	2.87
328 K, x1 = 0.08	2.74
328 K, x1 = 0.1	2.55
328 K, x1 = 0.15	1.82
328 K, x1 = 0.2	1.34
333 K, x1 = 0.05	3.08
333 K, x1 = 0.06	3.06
333 K, x1 = 0.08	2.88
333 K, x1 = 0.1	2.69
333 K, x1 = 0.12	2.32
333 K, x1 = 0.15	1.94
333 K, x1 = 0.2	1.46
338 K, x1 = 0.01	1.8
338 K, x1 = 0.02	2.59
338 K, x1 = 0.03	3.03
338 K, x1 = 0.06	3.21
338 K, x1 = 0.08	3.02
338 K, x1 = 0.1	2.83
338 K, x1 = 0.12	2.46
338 K, x1 = 0.15	2.06
338 K, x1 = 0.2	1.57
343 K, x1 = 0.01	1.86
343 K, x1 = 0.02	2.67
343 K, x1 = 0.03	3.14
343 K, x1 = 0.05	3.33
343 K, x1 = 0.06	3.34
343 K, x1 = 0.1	2.96
343 K, x1 = 0.12	2.6
343 K, x1 = 0.2	1.7
348 K, x1 = 0.01	1.91
348 K, x1 = 0.03	3.24
348 K, x1 = 0.05	3.45
348 K, x1 = 0.06	3.46
348 K, x1 = 0.1	3.11
348 K, x1 = 0.15	2.32
348 K, x1 = 0.2	1.81
